The assay concerns the target T1, human V1a receptor (Homo sapiens, UniProt P37288).
T1 construct: host or cells: CHO cells
Kind of assay: Human vasopressin V1a receptor binding assay (3H-AVP competition, hV1a cell line). The settings on record: CHO cells expressing human V1a, 1 nM 3H-AVP; for IC50: read-out: V1a Binding Affinity IC50; for Ki: read-out: V1a Ki. How it is done: Human vasopression V1a receptor binding assay. A cell line expressing the human V1a receptor in CHO cells (henceforth referred to as the hV1a cell line) was obtained from Dr. Michael Brownstein, NIMH, Bethesda, Md., USA. The hV1a cDNA sequence is described by Thibonnier et al., Journal of Biological Chemistry, 269, 3304-3310 (1994), and the expression method was the same as described by Morel et al. (1992). The hV1a cell line was grown in alpha-MEM with 10% fetal bovine serum and 250 ug/ml G418 (Gibco, Grand Island, N.Y., USA). For competitive binding assay, hV1a cells were plated into 6-well culture plate at 1:10 dilution from a confluency flask, and maintained in culture for at least two days. Culture medium was then removed, cells were washed with 2 ml binding buffer (25 mM Hepes, 0.25% BSA, 1×DMEM, PH=7.0). To each well, 990 μl binding buffer containing 1 nM 3H-AVP was added, and followed by 10 μl series diluted Example compounds dissolved in DMSO. […] 100 nM cold AVP (Sigma) was used to assess non-specific binding. Cells were incubated for 45 minutes at 37° C., assay mixture was removed and each well was washed three times with PBS (pH=7.4). 1 ml 2% SDS was added per well and plates were let sit for 30 minutes. The whole content in a well was transferred to a scintillation vial. Each well was rinsed with 0.5 ml PBS which was then added to the corresponding vial. Scintillation fluid (Ecoscint, National Diagnostics, Atlanta, Ga.) was then added at 3 ml per vial. Samples were counted in a liquid scintillation counter (Beckman LS3801). IC50 values were calculated by Prism Curve fitting software.
All of the alkanedioic esters and amides exemplified in the foregoing examples dissolved in DMSO were tested in this assay. Binding curves were generated according to methods described by Thibonnier et al. (1994). [^3H]-AVP was added to the hV1a cell cultures followed by 10-fold dilutions of each test compound.

T1 sequence (P37288 whole entry): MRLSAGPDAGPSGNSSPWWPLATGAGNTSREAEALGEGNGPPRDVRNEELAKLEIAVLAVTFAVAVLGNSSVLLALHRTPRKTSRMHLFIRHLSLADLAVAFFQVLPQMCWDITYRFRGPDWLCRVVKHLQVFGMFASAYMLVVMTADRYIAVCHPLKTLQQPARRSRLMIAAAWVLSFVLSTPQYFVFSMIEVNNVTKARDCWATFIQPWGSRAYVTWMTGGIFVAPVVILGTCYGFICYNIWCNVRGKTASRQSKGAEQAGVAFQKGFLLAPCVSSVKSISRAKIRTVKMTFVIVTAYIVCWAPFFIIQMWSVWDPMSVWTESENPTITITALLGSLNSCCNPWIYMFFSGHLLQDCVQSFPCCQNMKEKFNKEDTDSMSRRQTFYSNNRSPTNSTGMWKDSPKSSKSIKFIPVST

With `O=C(NCc1cccc(C(F)(F)F)c1)C(CC(=O)N1CCN(CCN2CCCC2)CC1)N1C(=O)C(N2C(=O)OCC2c2ccccc2)C1C=Cc1ccccc1` (stereo not shown) [Example 78], the IC50 (as a rule, the concentration at which inhibition is half-maximal) is below 100 nM.

With `O=C(NCc1cccc(C(F)(F)F)c1F)[C@H](CCC(=O)N1CCN(C2CCCCC2)CC1)N1C(=O)[C@@H](N2C(=O)OC[C@@H]2c2ccccc2)[C@H]1/C=C/c1ccccc1` [Example 180], the Ki (in general, the dissociation constant of the complex between target and ligand, obtained from inhibition or displacement) was 0.2 nM.

Consider `O=C(NCc1cc(C(F)(F)F)ccc1F)[C@H](CCC(=O)N1CCN(C2CCCCC2)CC1)N1C(=O)[C@@H](N2C(=O)OC[C@@H]2c2ccccc2)[C@H]1/C=C/c1ccccc1` [Example 177], for which the inhibition constant (Ki) was determined as 0.41 nM.

Consider `C[C@@H](NC(=O)[C@@H](CC(=O)N1CCC(N2CCCCC2)CC1)N1C(=O)[C@@H](N2C(=O)OC[C@@H]2c2cccc(Cl)c2)[C@H]1/C=C/c1ccccc1)c1ccccc1` [Example 256], for which the IC50 worked out at 2.8 nM and the Ki is 1.7 nM.

As to `O=C(NCc1ccccc1C(F)(F)F)[C@H](CCC(=O)N1CCN(C2CCCCC2)CC1)N1C(=O)[C@@H](N2C(=O)OC[C@@H]2c2ccccc2)[C@H]1/C=C/c1ccccc1` [Example 182], the inhibition constant Ki was 0.93 nM.

Take `CCCCN(Cc1ccccc1)C(=O)[C@H](CCC(=O)N1CCN(C2CCCCC2)CC1)N1C(=O)[C@@H](N2C(=O)OC[C@@H]2c2ccccc2)[C@H]1/C=C/c1ccccc1` [Example 198]: the half-inhibitory concentration (IC50) was around 100 nM.

Turning to `CN(Cc1cccc(C(F)(F)F)c1)C(=O)[C@@H](CC(=O)N1CCC(N2CCCCC2)CC1)N1C(=O)[C@@H](N2C(=O)OC[C@@H]2c2ccccc2)[C@H]1/C=C/c1cccc(Cl)c1` [Example 247], the IC50 worked out at 0.6 nM and the inhibition constant Ki was 0.39 nM.

For `O=C(CCC(C(=O)NCc1cccc(C(F)(F)F)c1)N1C(=O)C(N2C(=O)OCC2c2ccccc2)C1C=Cc1ccccc1)NCCN1CCCCC1` (stereo not shown) [Example 87], the IC50 is 15 nM.

For the compound `O=C(NCc1cc(Cl)cc(Cl)c1)[C@H](CCC(=O)N1CCN(C2CCCCC2)CC1)N1C(=O)[C@@H](N2C(=O)OC[C@@H]2c2ccccc2)[C@H]1/C=C/c1ccccc1` [Example 185], the IC50 was 1.27 nM and the Ki was 0.82 nM.

`O=C(N[C@@H]1CCCc2ccccc21)[C@H](CCC(=O)N1CCN(C2CCCCC2)CC1)N1C(=O)[C@@H](N2C(=O)OC[C@@H]2c2ccccc2)[C@H]1/C=C/c1cccs1` [Example 255]: the IC50 was found to be 1.9 nM and the inhibitory constant (Ki) stood at 1.2 nM.

Regarding `O=C(NCc1cc(F)cc(C(F)(F)F)c1)[C@H](CCC(=O)N1CCN(C2CCCCC2)CC1)N1C(=O)[C@@H](N2C(=O)OC[C@@H]2c2ccccc2)[C@H]1/C=C/c1ccccc1` [Example 179], the Ki worked out at 0.51 nM.

In the case of `O=C(N[C@@H]1CCCc2ccccc21)[C@H](CCC(=O)N1CCN(C2CCCCC2)CC1)N1C(=O)[C@@H](N2C(=O)OC[C@@H]2c2ccccc2)[C@H]1/C=C/c1ccco1` [Example 254], the half-inhibitory concentration (IC50) came to 10 nM and the Ki was 6.2 nM.

For `O=C(NCc1cccc(Cl)c1)[C@H](CCC(=O)N1CCN(C2CCCCC2)CC1)N1C(=O)[C@@H](N2C(=O)OC[C@@H]2c2ccccc2)[C@H]1/C=C/c1ccccc1` [Example 187], the inhibition constant (Ki) is 0.66 nM.

For the compound `O=C(C(COCc1ccccc1)N1C(=O)C(N2C(=O)OCC2c2ccccc2)C1C=Cc1ccccc1)N1CCC(CN2CCCCC2)CC1` (stereo not shown) [Example 233A], the Ki was 11.6 nM.

Regarding `O=C(NCc1cccc(C(F)(F)F)c1)[C@H](CCC(=O)N1CCC(CN2CCCCC2)CC1)N1C(=O)[C@@H](N2C(=O)OC[C@@H]2c2ccccc2)[C@H]1/C=C/c1ccccc1` [Example 120E], the half-maximal inhibitory concentration (IC50) turned out to be 3.2 nM and the inhibitory constant (Ki) was 1.95 nM.

With `O=C(NC1CCc2ccccc21)C(CCC(=O)N1CCN(C2CCCCC2)CC1)N1C(=O)C(N2C(=O)OCC2c2ccccc2)C1C=Cc1ccccc1` (mixture of isomers) [Example 216], the IC50 was 1.83 nM and the Ki was found to be 1.12 nM.

Consider `O=C(NCc1cccc(C(F)(F)F)c1)[C@H](CCC(=O)N1CCN(C2CCCCC2)CC1)N1C(=O)[C@@H](N2C(=O)OC[C@@H]2c2ccccc2)[C@H]1/C=C/c1ccccc1` [Example 120H], for which the half-maximal inhibitory concentration (IC50) came out at 2.75 nM and the Ki turned out to be 1.68 nM.

Values taken from patent US9376424B2, “Methods for treating post traumatic stress disorder” (AZEVAN PHARMACEUTICALS, INC., priority 2010, dated 2016).
